US8664257B2, “Oxygen-substituted 3-heteroaroylamino-propionic acid derivatives and their use as pharmaceuticals” (Sanofi, priority 2010, dated 2014)
pIC50: −log10 of the molar value.

Target: T1, Recombinant human cathepsin A (Homo sapiens, UniProt P10619)
T1 construct: Recombinant human cathepsin A (residues 29-480, with a C-terminal 10-His tag); 10-His (C); purchased R&D Systems 1049-SE
T1 sequence (P10619 29-312 limits assumed): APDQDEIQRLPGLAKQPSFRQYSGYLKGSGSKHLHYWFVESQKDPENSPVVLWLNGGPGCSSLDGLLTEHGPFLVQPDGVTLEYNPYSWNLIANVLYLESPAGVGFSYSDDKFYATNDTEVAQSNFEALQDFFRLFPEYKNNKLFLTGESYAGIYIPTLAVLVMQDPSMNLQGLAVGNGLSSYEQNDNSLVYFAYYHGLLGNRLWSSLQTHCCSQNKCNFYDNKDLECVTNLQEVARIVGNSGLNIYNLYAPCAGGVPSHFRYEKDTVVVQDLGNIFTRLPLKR
T1 sequence (P10619 327-480 limits assumed): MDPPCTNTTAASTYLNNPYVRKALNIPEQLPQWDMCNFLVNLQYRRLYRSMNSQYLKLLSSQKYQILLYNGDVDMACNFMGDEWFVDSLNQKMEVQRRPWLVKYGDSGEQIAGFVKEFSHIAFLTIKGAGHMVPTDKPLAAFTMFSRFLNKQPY
Experiment: Cathepsin A inhibitory activity
Assay type: biochemical
Conditions: number printed in place of a class symbol; unit from footnote (2); read-out: Activity (2): Cathepsin A inhibitory activity, IC50 printed as a numeric bound
Summary of the method: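 Human cathepsin A (res. 29-480, C-His10) pre-activated with cathepsin L (MES pH 6.0, DTT, 15 min, 37 °C; quenched with 10 μM E-64). Enzyme (833 ng/ml) preincubated 15 min RT with compound in MES pH 5.5/DTT, then 2 μM Bodipy FL-bradykinin for 15 min RT. Capillary electrophoresis product/substrate peak areas; IC50 from % inhibition.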

SMILES	pIC50
CC(C)[C@@](C)(O)COc1cc(C(=O)N[C@@H](CC(=O)O)c2ccccc2Cl)nn1-c1ccccc1F [Example 861, (S)-3-(2-Chloro-phenyl)-3-{[1-(2-fluoro-phenyl)-5-((R)-2-hydroxy-2,3-dimethyl-butoxy)-1H-pyrazole-3-carbonyl]-amino}-propionic acid]	< 4.52

Same assay, conditions: read-out: Activity (2): Cathepsin A inhibitory activity, IC50 class

SMILES	pIC50
CC(C)C(C)(O)COc1cc(C(=O)N[C@H](CC(=O)O)Cc2ccccc2)nn1-c1ccccc1F (stereo partly drawn) [Example 838, (S)-3-{[1-(2-Fluoro-phenyl)-5-(2-hydroxy-2,3-dimethyl-butoxy)-1H-pyrazole-3-carbonyl]-amino}-4-phenyl-butyric acid]	4.52 to 6.00
CC(C)(C)C(=O)COc1cc(C(=O)N[C@@H](CC(=O)O)c2cccc(Cl)c2Cl)nn1-c1ccccc1F [Example 839, (S)-3-(2,3-Dichloro-phenyl)-3-{[5-(3,3-dimethyl-2-oxo-butoxy)-1-(2-fluoro-phenyl)-1H-pyrazole-3-carbonyl]-amino}-propionic acid]	> 7.00
COc1ccc([C@H](CC(=O)O)NC(=O)c2cc(OC[C@@](C)(O)C(C)C)n(-c3ccccc3F)n2)cc1 [Example 840, (S)-3-{[1-(2-Fluoro-phenyl)-5-((S)-2-hydroxy-2,3-dimethyl-butoxy)-1H-pyrazole-3-carbonyl]-amino}-3-(4-methoxy-phenyl)-propionic acid]	4.52 to 6.00
CC(C)C[C@@H](CC(=O)O)NC(=O)c1cc(OC[C@@](C)(O)C(C)C)n(-c2ccccc2F)n1 [Example 841, (S)-3-{[1-(2-Fluoro-phenyl)-5-((S)-2-hydroxy-2,3-dimethyl-butoxy)-1H-pyrazole-3-carbonyl]-amino}-5-methyl-hexanoic acid]	4.52 to 6.00
CC(C)[C@](C)(O)COc1cc(C(=O)N[C@@H](CC(=O)O)c2ccc(Cl)cc2Cl)nn1-c1ccccc1F [Example 849, (S)-3-(2,4-Dichloro-phenyl)-3-{[1-(2-fluoro-phenyl)-5-((S)-2-hydroxy-2,3-dimethyl-butoxy)-1H-pyrazole-3-carbonyl]-amino}-propionic acid]	> 7.00
COc1ccc([C@H](CC(=O)O)NC(=O)c2cc(OC[C@](C)(O)C(C)C)n(-c3ccccc3F)n2)cc1 [Example 850, (S)-3-{[1-(2-Fluoro-phenyl)-5-((R)-2-hydroxy-2,3-dimethyl-butoxy)-1H-pyrazole-3-carbonyl]-amino}-3-(4-methoxy-phenyl)-propionic acid]	> 7.00
CC(C)(C)[C@@](C)(O)COc1cc(C(=O)N[C@@H](CC(=O)O)c2ccccc2F)nn1-c1ccccc1F [Example 854, (S)-3-(2-Fluoro-phenyl)-3-{[1-(2-fluoro-phenyl)-5-((R)-2-hydroxy-2,3,3-trimethyl-butoxy)-1H-pyrazole-3-carbonyl]-amino}-propionic acid]	6.00 to 7.00
Cc1ccccc1[C@H](CC(=O)O)NC(=O)c1cc(OC[C@](C)(O)C(C)C)n(-c2ccccc2F)n1 [Example 857, (S)-3-{[1-(2-Fluoro-phenyl)-5-((R)-2-hydroxy-2,3-dimethyl-butoxy)-1H-pyrazole-3-carbonyl]-amino}-3-o-tolyl-propionic acid]	> 7.00
Cc1ccc([C@H](CC(=O)O)NC(=O)c2cc(OC[C@](C)(O)C(C)C)n(-c3ccccc3F)n2)c(C)c1 [Example 859, (S)-3-(2,4-Dimethyl-phenyl)-3-{[1-(2-fluoro-phenyl)-5-((R)-2-hydroxy-2,3-dimethyl-butoxy)-1H-pyrazole-3-carbonyl]-amino}-propionic acid]	> 7.00
Cc1ccc([C@H](CC(=O)O)NC(=O)c2cc(OC[C@](C)(O)C(C)C)n(-c3ccccc3F)n2)cc1 [Example 860, (S)-3-{[1-(2-Fluoro-phenyl)-5-((R)-2-hydroxy-2,3-dimethyl-butoxy)-1H-pyrazole-3-carbonyl]-amino}-3-p-tolyl-propionic acid]	> 7.00
CC(C)[C@@](C)(O)COc1cc(C(=O)N[C@@H](CC(=O)O)c2ccccc2F)nn1-c1ccccc1F [Example 862, (S)-3-(2-Fluoro-phenyl)-3-{[1-(2-fluoro-phenyl)-5-((R)-2-hydroxy-2,3-dimethyl-butoxy)-1H-pyrazole-3-carbonyl]-amino}-propionic acid]	6.00 to 7.00
Cc1ccccc1[C@H](CC(=O)O)NC(=O)c1cc(OC[C@@](C)(O)C(C)C)n(-c2ccccc2F)n1 [Example 870, (S)-3-{[1-(2-Fluoro-phenyl)-5-((S)-2-hydroxy-2,3-dimethyl-butoxy)-1H-pyrazole-3-carbonyl]-amino}-3-o-tolyl-propionic acid]	> 7.00
CC(C)[C@](C)(O)COc1cc(C(=O)N[C@@H](CC(=O)O)c2ccc(F)cc2)nn1-c1ccccc1F [Example 872, (S)-3-(4-Fluoro-phenyl)-3-{[1-(2-fluoro-phenyl)-5-((S)-2-hydroxy-2,3-dimethyl-butoxy)-1H-pyrazole-3-carbonyl]-amino}-propionic acid]	6.00 to 7.00
CC(C)[C@](C)(O)COc1cc(C(=O)N[C@@H](CC(=O)O)c2cccc(Cl)c2)nn1-c1ccccc1F [Example 877, (S)-3-(3-Chloro-phenyl)-3-{[1-(2-fluoro-phenyl)-5-((S)-2-hydroxy-2,3-dimethyl-butoxy)-1H-pyrazole-3-carbonyl]-amino}-propionic acid]	6.00 to 7.00
CC(C)(C)[C@](C)(O)COc1cc(C(=O)N[C@@H](CC(=O)O)c2ccc(F)cc2)nn1-c1ccccc1F [Example 880, (S)-3-(4-Fluoro-phenyl)-3-{[1-(2-fluoro-phenyl)-5-((S)-2-hydroxy-2,3,3-trimethyl-butoxy)-1H-pyrazole-3-carbonyl]-amino}-propionic acid]	> 7.00
CC(C)(C)[C@](C)(O)COc1cc(C(=O)N[C@@H](CC(=O)O)c2ccccc2F)nn1-c1ccccc1F [Example 883, (S)-3-(2-Fluoro-phenyl)-3-{[1-(2-fluoro-phenyl)-5-((S)-2-hydroxy-2,3,3-trimethyl-butoxy)-1H-pyrazole-3-carbonyl]-amino}-propionic acid]	> 7.00
COc1cccc([C@H](CC(=O)O)NC(=O)c2cc(OC[C@@](C)(O)C(C)(C)C)n(-c3ccccc3F)n2)c1OC [Example 884, (S)-3-(2,3-Dimethoxy-phenyl)-3-{[1-(2-fluoro-phenyl)-5-((S)-2-hydroxy-2,3,3-trimethyl-butoxy)-1H-pyrazole-3-carbonyl]-amino}-propionic acid]	> 7.00
Cc1ccccc1[C@H](CC(=O)O)NC(=O)c1cc(OCC(C)(O)c2ccccc2)n(-c2ccccc2F)n1 (stereo partly drawn) [Example 891, (S)-3-{[1-(2-Fluoro-phenyl)-5-(2-hydroxy-2-phenyl-propoxy)-1H-pyrazole-3-carbonyl]-amino}-3-o-tolyl-propionic acid]	> 7.00

Same assay, conditions: recombinant human cathepsin A 833 ng/ml, Bodipy FL-labeled bradykinin 2 μM, pH 5.5; read-out: CATH-A IC50

SMILES	pIC50
Cc1ccc([C@H](CC(=O)O)NC(=O)c2cc(OC[C@](C)(O)C(C)C)n(-c3ccccc3F)n2)cc1 [Example 860, (S)-3-{[1-(2-Fluoro-phenyl)-5-((R)-2-hydroxy-2,3-dimethyl-butoxy)-1H-pyrazole-3-carbonyl]-amino}-3-p-tolyl-propionic acid]	7.12
Cc1ccccc1[C@H](CC(=O)O)NC(=O)c1cc(OC[C@@](C)(O)C(C)C)n(-c2ccccc2F)n1 [Example 870, (S)-3-{[1-(2-Fluoro-phenyl)-5-((S)-2-hydroxy-2,3-dimethyl-butoxy)-1H-pyrazole-3-carbonyl]-amino}-3-o-tolyl-propionic acid]	7.12

Same assay, conditions: recombinant human cathepsin A; read-out: Activity (2): Cathepsin A inhibitory activity, IC50 class

SMILES	pIC50
COc1cc(C(=O)N[C@@H](CC(=O)NCc2ccncc2)c2ccccc2C)nn1-c1ccccc1F [Example 916, 1-(2-Fluoro-phenyl)-5-methoxy-1H-pyrazole-3-carboxylic acid {(S)-2-[(pyridin-4-ylmethyl)-carbamoyl]-1-o-tolyl-ethyl}-amide]	4.52 to 6.00
CCC(C)(C)NC(=O)C[C@H](NC(=O)c1cc(OC)n(-c2ccccc2F)n1)c1ccccc1C [Example 917, 1-(2-Fluoro-phenyl)-5-methoxy-1H-pyrazole-3-carboxylic acid [(S)-2-(1,1-dimethyl-propylcarbamoyl)-1-o-tolyl-ethyl]-amide]	4.52 to 6.00
CC[C@@H](C)NC(=O)C[C@H](NC(=O)c1cc(OC)n(-c2ccccc2F)n1)c1ccccc1C [Example 918, 1-(2-Fluoro-phenyl)-5-methoxy-1H-pyrazole-3-carboxylic acid [(S)-2-((R)-sec-butylcarbamoyl)-1-o-tolyl-ethyl]-amide]	4.52 to 6.00
COc1cc(C(=O)N[C@@H](CC(=O)NCC(C)C)c2ccccc2C)nn1-c1ccccc1F [Example 919, 1-(2-Fluoro-phenyl)-5-methoxy-1H-pyrazole-3-carboxylic acid ((S)-2-isobutylcarbamoyl-1-o-tolyl-ethyl)-amide]	4.52 to 6.00
COc1cc(C(=O)N[C@@H](CC(=O)N[C@@H](C)C(C)(C)C)c2ccccc2C)nn1-c1ccccc1F [Example 920, 1-(2-Fluoro-phenyl)-5-methoxy-1H-pyrazole-3-carboxylic acid [(S)-1-o-tolyl-2-((S)-1,2,2-trimethyl-propylcarbamoyl)-ethyl]-amide]	4.52 to 6.00
CCC(COC)NC(=O)C[C@H](NC(=O)c1cc(OC)n(-c2ccccc2F)n1)c1ccccc1C (stereo partly drawn) [Example 921, 1-(2-Fluoro-phenyl)-5-methoxy-1H-pyrazole-3-carboxylic acid [(S)-2-(1-methoxymethyl-propylcarbamoyl)-1-o-tolyl-ethyl]-amide]	4.52 to 6.00
COc1cc(C(=O)N[C@@H](CC(=O)NC(C)(C)C)c2ccccc2C)nn1-c1ccccc1F [Example 922, 1-(2-Fluoro-phenyl)-5-methoxy-1H-pyrazole-3-carboxylic acid ((S)-2-tert-butylcarbamoyl-1-o-tolyl-ethyl)-amide]	4.52 to 6.00
